Measured values as given in PubChem BioAssay (NCI).
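Each compound was tested at five concentrations against cells in 96-well plates for 48 hours. GI50: concentration for 50% inhibition of growth. At the TGI there is no net growth.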

Tests used:
Assay in all cases: DTP human tumour cell line panel, 48 h
SNB-19 CNS = test system: SNB-19 CNS
SN12C renal = test system: SN12C renal
MDA-MB-231 breast = test system: MDA-MB-231 breast
UACC-257 melanoma = test system: UACC-257 melanoma
UACC-62 melanoma = test system: UACC-62 melanoma
UO-31 renal = test system: UO-31 renal
NCI-H460 lung = test system: NCI-H460 lung
NCI-H23 lung = test system: NCI-H23 lung
MCF7 breast = test system: MCF7 breast
K-562 leukemia = test system: K-562 leukemia
SW-620 colon = test system: SW-620 colon
NCI/ADR-RES ovarian = test system: NCI/ADR-RES ovarian
RXF 393 renal = test system: RXF 393 renal
PC-3 prostate = test system: PC-3 prostate
SK-MEL-5 melanoma = test system: SK-MEL-5 melanoma
TK-10 renal = test system: TK-10 renal
SK-OV-3 ovarian = test system: SK-OV-3 ovarian
SF-539 CNS = test system: SF-539 CNS
SK-MEL-2 melanoma = test system: SK-MEL-2 melanoma
OVCAR-4 ovarian = test system: OVCAR-4 ovarian
ACHN renal = test system: ACHN renal
A549 NSCLC = test system: A549 NSCLC
OVCAR-5 ovarian = test system: OVCAR-5 ovarian
RPMI-8226 leukemia = test system: RPMI-8226 leukemia
BT-549 breast = test system: BT-549 breast
SF-295 CNS = test system: SF-295 CNS
MOLT-4 leukemia = test system: MOLT-4 leukemia
SK-MEL-28 melanoma = test system: SK-MEL-28 melanoma
HOP-92 NSCLC = test system: HOP-92 NSCLC
T-47D breast = test system: T-47D breast
786-0 renal = test system: 786-0 renal
HCC-2998 colon = test system: HCC-2998 colon
HL-60(TB) leukemia = test system: HL-60(TB) leukemia
CCRF-CEM leukemia = test system: CCRF-CEM leukemia
DU-145 prostate = test system: DU-145 prostate
SF-268 CNS = test system: SF-268 CNS
EKVX NSCLC = test system: EKVX NSCLC
KM12 colon = test system: KM12 colon
MDA-MB-435 = test system: MDA-MB-435
HS 578T breast = test system: HS 578T breast
COLO 205 colon = test system: COLO 205 colon
M14 melanoma = test system: M14 melanoma
IGROV1 ovarian = test system: IGROV1 ovarian
SNB-75 CNS = test system: SNB-75 CNS
LOX IMVI melanoma = test system: LOX IMVI melanoma
HCT-15 colon = test system: HCT-15 colon
HT29 colon = test system: HT29 colon
HOP-62 NSCLC = test system: HOP-62 NSCLC
HCT-116 colon = test system: HCT-116 colon
CAKI-1 renal = test system: CAKI-1 renal
NCI-H522 lung = test system: NCI-H522 lung
SR leukemia = test system: SR leukemia
NCI-H226 lung = test system: NCI-H226 lung
U251 CNS = test system: U251 CNS
MALME-3M melanoma = test system: MALME-3M melanoma
OVCAR-8 ovarian = test system: OVCAR-8 ovarian

CS(=O)(=O)Nc1cc(-c2ccc3ncc(C#N)c(NCc4cccc(F)c4)c3c2)cnc1Cl
GI50 (SNB-19 CNS): 292 nM
TGI (SNB-19 CNS): 11000 nM
GI50 (SN12C renal): 278 nM
TGI (SN12C renal): 32400 nM
GI50 (MDA-MB-231 breast): 350 nM
TGI (MDA-MB-231 breast): 4960 nM
GI50 (UACC-257 melanoma): 335 nM
TGI (UACC-257 melanoma): 7140 nM
GI50 (UACC-62 melanoma): 121 nM
TGI (UACC-62 melanoma): 1190 nM
GI50 (UO-31 renal): 162 nM
TGI (UO-31 renal): > 21500 nM
GI50 (NCI-H460 lung): 509 nM
TGI (NCI-H460 lung): 11400 nM
GI50 (NCI-H23 lung): 348 nM
TGI (NCI-H23 lung): 13600 nM
GI50 (MCF7 breast): 118 nM
TGI (MCF7 breast): 9850 nM
GI50 (K-562 leukemia): 274 nM
TGI (K-562 leukemia): > 59300 nM
GI50 (SW-620 colon): 344 nM
TGI (SW-620 colon): 10300 nM
GI50 (NCI/ADR-RES ovarian): 1990 nM
TGI (NCI/ADR-RES ovarian): 40300 nM
GI50 (RXF 393 renal): 110 nM
TGI (RXF 393 renal): 784 nM
GI50 (PC-3 prostate): 284 nM
TGI (PC-3 prostate): 5710 nM
GI50 (SK-MEL-5 melanoma): 179 nM
TGI (SK-MEL-5 melanoma): 403 nM
GI50 (TK-10 renal): 141 nM
TGI (TK-10 renal): 1220 nM
GI50 (SK-OV-3 ovarian): 263 nM
TGI (SK-OV-3 ovarian): 1760 nM
GI50 (SF-539 CNS): 195 nM
TGI (SF-539 CNS): 1850 nM
GI50 (SK-MEL-2 melanoma): 122 nM
TGI (SK-MEL-2 melanoma): 374 nM
GI50 (OVCAR-4 ovarian): 309 nM
TGI (OVCAR-4 ovarian): > 27700 nM
GI50 (ACHN renal): 570 nM
TGI (ACHN renal): > 45100 nM
GI50 (A549 NSCLC): 695 nM
TGI (A549 NSCLC): 6800 nM
GI50 (OVCAR-5 ovarian): 473 nM
TGI (OVCAR-5 ovarian): 12000 nM
GI50 (RPMI-8226 leukemia): 287 nM
TGI (RPMI-8226 leukemia): 2160 nM
GI50 (BT-549 breast): 73.6 nM
TGI (BT-549 breast): 678 nM
GI50 (SF-295 CNS): 237 nM
TGI (SF-295 CNS): 2430 nM
GI50 (MOLT-4 leukemia): 218 nM
TGI (MOLT-4 leukemia): 1980 nM
GI50 (SK-MEL-28 melanoma): 191 nM
TGI (SK-MEL-28 melanoma): 4690 nM
GI50 (HOP-92 NSCLC): 36.3 nM
TGI (HOP-92 NSCLC): 459 nM
GI50 (T-47D breast): 63.5 nM
TGI (T-47D breast): 1460 nM
GI50 (786-0 renal): 310 nM
TGI (786-0 renal): 5520 nM
GI50 (HCC-2998 colon): 367 nM
TGI (HCC-2998 colon): 6560 nM
GI50 (HL-60(TB) leukemia): 330 nM
TGI (HL-60(TB) leukemia): 4450 nM
GI50 (CCRF-CEM leukemia): 164 nM
TGI (CCRF-CEM leukemia): 20400 nM
GI50 (DU-145 prostate): 336 nM
TGI (DU-145 prostate): 11800 nM
GI50 (SF-268 CNS): 196 nM
TGI (SF-268 CNS): 3610 nM
GI50 (EKVX NSCLC): 381 nM
TGI (EKVX NSCLC): 5130 nM
GI50 (KM12 colon): 347 nM
TGI (KM12 colon): 2610 nM
GI50 (MDA-MB-435): 258 nM
TGI (MDA-MB-435): 9500 nM
GI50 (HS 578T breast): 51.3 nM
TGI (HS 578T breast): 451 nM
GI50 (COLO 205 colon): 357 nM
TGI (COLO 205 colon): 1650 nM
GI50 (M14 melanoma): 254 nM
TGI (M14 melanoma): 5860 nM
GI50 (IGROV1 ovarian): 122 nM
TGI (IGROV1 ovarian): 972 nM
GI50 (SNB-75 CNS): 34.3 nM
TGI (SNB-75 CNS): 448 nM
GI50 (LOX IMVI melanoma): 200 nM
TGI (LOX IMVI melanoma): 1110 nM
GI50 (HCT-15 colon): 289 nM
TGI (HCT-15 colon): 11800 nM
GI50 (HT29 colon): 502 nM
TGI (HT29 colon): 4640 nM
GI50 (HOP-62 NSCLC): 220 nM
TGI (HOP-62 NSCLC): 4150 nM
GI50 (HCT-116 colon): 277 nM
TGI (HCT-116 colon): 1480 nM
GI50 (CAKI-1 renal): 163 nM
TGI (CAKI-1 renal): 2040 nM
GI50 (NCI-H522 lung): 369 nM
TGI (NCI-H522 lung): 7860 nM
GI50 (SR leukemia): 112 nM
TGI (SR leukemia): 2240 nM
GI50 (NCI-H226 lung): 363 nM
TGI (NCI-H226 lung): 22800 nM
GI50 (U251 CNS): 197 nM
TGI (U251 CNS): 2680 nM
GI50 (MALME-3M melanoma): 79.3 nM
TGI (MALME-3M melanoma): 559 nM
GI50 (OVCAR-8 ovarian): 366 nM
TGI (OVCAR-8 ovarian): 16400 nM
